Test results from US11485751B2, “Apramycin derivatives” (WAYNE STATE UNIVERSITY, priority 2017, dated 2022).
In brackets after ≈: the same amount, converted by molar mass. Where two headings read alike, the source gives them in different places.

How the values were obtained:
[1] = system: AG033 P. aer. APH(3′)-II AAC(6′)-I; experiment: Antibacterial activity, clinical isolate AG033; type: cell-based; parameters: unit not given here
Excerpt: (§1) Minimal inhibitory concentrations (MIC) have been determined by broth microdilution assays (CLSI. Methods for Dilution Antimicrobial Susceptibility Tests for Bacteria That Grow Aerobically; Approved Standard—Tenth Edition. CLSI document M07-A10. Wayne, Pa.: Clinical and Laboratory Standards Institute; 2015.).
(§2) Table 4 and 5 show the antibacterial activity of the compounds of the invention against bacterial reference strains (table 4) and against representative clinical isolates (table 5).

AG003 E. coli AAC(3)-II = experiment: Antibacterial activity, clinical isolate AG003; type: cell-based
Excerpt: as §1, §2

WT clinical isolates = experiment: MIC broth microdilution, WT; type: cell-based; conditions: wild type; for MIC: read-out: MIC WT, clinical isolates, IMM Univ. Zurich
Excerpt: as §1
(§3) Minimal inhibitory concentrations (MICs, […]) against clinical isolates from Institute of Medical Microbiology, Univ. Zurich, and the IC50 values for bacterial, human mitochondrial and human cytosolic ribosomes are indicated.
(§4) Minimal inhibitory concentrations (μg/ml) against clinical isolates from Institute of Medical Microbiology, Univ. Zurich, and the IC50 values for bacterial, human mitochondrial and human cytosolic ribosomes are indicated.
(§5) The Minimal inhibitory concentrations (MICs, μg/ml) against clinical isolates from Institute of Medical Microbiology, Univ Zurich, and the IC50 values for bacterial, human mitochondrial and human cytosolic ribosomes are indicated.

[2] = system: Engineered E. coli pH430 WT; experiment: Activity, engineered E. coli pH430 WT; type: cell-based; conditions: wild type
Excerpt: as §1

[3] = system: Engineered E. coli pH426 rmtC; experiment: Activity against G1405-methylated 16S-rRNA, E. coli pH426 rmtC; type: cell-based
Excerpt: as §1

[4] = system: AG215, Klebsiella pneumonia; experiment: MIC reference strain AG215; type: cell-based; conditions: for MIC: Klebsiella pneumoniae, read-out: MIC AG215 K. pneumonia
Excerpt: as §1, §2
(§6) Legend to Tables: GEN, gentamicin; AMK, amikacin; PLZ, plazomicin; APR, apramycin; AG212, Escherichia coli ATCC25922; AG215, Klebsiella pneumonia; AG220, Pseudomonas aeruginosa ATCC27853; AG225, Acinetobacter baumannii pittii; AG290, Enterobacter cloacae; […], Mycobacterium smegmatis. MICs for AG192 have been determined in the presence of 0.5 μg/mL of ampicillin in the medium to mimic the synergistic effect of aminoglycoside and β-lactam antibiotics combination therapy in the treatment of Enterococcus infections in humans.

[5] = system: AG290, Enterobacter cloacae; experiment: MIC reference strain AG290; type: cell-based; conditions: for MIC: Enterobacter cloacae, read-out: MIC AG290 E. cloacae
Excerpt: as §1, §2, §6

[6] = system: AG220, Pseudomonas aeruginosa ATCC27853; experiment: MIC reference strain AG220; type: cell-based; conditions: for MIC: Pseudomonas aeruginosa
Excerpt: as §1, §2, §6

isolates carrying apmA = experiment: MIC broth microdilution, apmA; type: cell-based; conditions: apmA resistance gene
Excerpt: as §1, with “2015.). […]” for “2015.).”
as §4, §5

AG173 E. coli AAC(3)-IV = experiment: Antibacterial activity, clinical isolate AG173; type: cell-based
Excerpt: as §1, §2

[7] = system: AG042 MRSA AAC(6′)-I ANT(4′)-I APH(2′); experiment: Antibacterial activity, clinical isolate AG042; type: cell-based; parameters: unit not given here
Excerpt: as §1, §2

[8] = system: human cytosolic ribosomes; experiment: in-vitro translation assay, human cytosolic ribosomes; type: biochemical
Excerpt: (§7) IC50 values for bacterial, human chimeric, and rabbit reticulocyte ribosomes have been determined by in-vitro translation assays as described previously (Proc. Nat. Ac. Sci USA 2012, 109(27):10984-10989).
as §3

[9] = system: AG212, Escherichia coli ATCC25922; experiment: MIC reference strain AG212; type: cell-based; conditions: for MIC: Escherichia coli
Excerpt: as §1, §2, §6

[10] = system: Engineered E. coli pH424 armA; experiment: Activity against G1405-methylated 16S-rRNA, E. coli pH424 armA; type: cell-based
Excerpt: as §1

AG032 P. aer. APH(3′)-II = experiment: Antibacterial activity, clinical isolate AG032; type: cell-based; parameters: unit not given here
Excerpt: as §1, §2

[11] = system: SZ380, Mycobacterium smegmatis; experiment: MIC reference strain SZ380; type: cell-based; conditions: reference strain; for MIC: Mycolicibacterium smegmatis, read-out: MIC SZ380 M. smegmatis
Excerpt: as §1, §2, §6

[12] = system: Engineered E. coli pH425 rmtB; experiment: Activity against G1405-methylated 16S-rRNA, E. coli pH425 rmtB; type: cell-based
Excerpt: as §1

AG038 MRSA = experiment: Antibacterial activity, clinical isolate AG038; type: cell-based; parameters: unit not given here
Excerpt: as §1, §2

[13] = system: clinical isolates carrying AAC(3)-IV; experiment: MIC broth microdilution, AAC(3)-IV; type: cell-based; conditions: clinical isolates, IMM Univ. Zurich, AAC(3)-IV; for MIC: read-out: MIC AAC(3)-IV
Excerpt: as §1, §3, §4, §5

[14] = system: AG039 MRSA AAC(6′)-I ANT(4′)-I; experiment: Antibacterial activity, clinical isolate AG039; type: cell-based
Excerpt: as §1, §2

AG055 E. coli WT = experiment: Antibacterial activity, clinical isolate AG055; type: cell-based; parameters: unit not given here
Excerpt: as §1, §2

ATCC19977 M. abcessus = experiment: MIC reference strain ATCC19977; type: cell-based; conditions: for MIC: read-out: MIC ATCC19977 M. abcessus
Excerpt: as §1, §2

[15] = system: Engineered E. coli pH427 rmtF; experiment: Activity against G1405-methylated 16S-rRNA, E. coli pH427 rmtF; type: cell-based
Excerpt: as §1

[16] = system: AG225, Acinetobacter baumannii pittii; experiment: MIC reference strain AG225; type: cell-based; conditions: for MIC: Acinetobacter baumannii, read-out: MIC AG225 A. baumannii
Excerpt: as §1, §2, §6

[17] = system: human mitochondrial ribosomes; experiment: in-vitro translation assay, human mitochondrial (human chimeric) ribosomes; type: biochemical
Excerpt: as §7, §3

AG001 E. coli WT = experiment: Antibacterial activity, clinical isolate AG001; type: cell-based; parameters: unit not given here
Excerpt: as §1, §2

AG031 P. aer. APH(3′)-II = experiment: Antibacterial activity, clinical isolate AG031; type: cell-based; parameters: unit not given here
Excerpt: as §1, §2

[18] = system: Engineered E. coli AG103 armA; experiment: Activity against G1405-methylated 16S-rRNA, E. coli AG103 armA; type: cell-based
Excerpt: as §1

bacterial ribosomes = experiment: in-vitro translation assay, bacterial ribosomes; type: biochemical
Excerpt: as §7, §3

[19] = ATCC27853, reference strain ATCC27853, read-out: MIC AG220 P. aeruginosa
[20] = reference strain ATCC25922, read-out: MIC AG212 E. coli

SMILES	Antibacterial activity AG033 P. aer. APH(3′)-II AAC(6′)-I [1]	Antibacterial activity AG003 E. coli AAC(3)-II (AG003 E. coli AAC(3)-II)	Activity E. coli pH430 WT [2]	Activity E. coli pH426 rmtC [3]	Antibacterial activity AG173 E. coli AAC(3)-IV (AG173 E. coli AAC(3)-IV)	Antibacterial activity AG042 MRSA AAC(6′)-I ANT(4′)-I APH(2′) [7]	IC50 [8]	Activity E. coli pH424 armA [10]	Antibacterial activity AG032 P. aer. APH(3′)-II (AG032 P. aer. APH(3′)-II)	Activity E. coli pH425 rmtB [12]	Antibacterial activity AG038 MRSA (AG038 MRSA)	Antibacterial activity AG039 MRSA AAC(6′)-I ANT(4′)-I [14]	Antibacterial activity AG055 E. coli WT (AG055 E. coli WT)	Activity E. coli pH427 rmtF [15]	IC50 [17]	Antibacterial activity AG001 E. coli WT (AG001 E. coli WT)	Antibacterial activity AG031 P. aer. APH(3′)-II (AG031 P. aer. APH(3′)-II)	Activity E. coli AG103 armA [18]	IC50 (bacterial ribosomes)	MIC (WT clinical isolates)	further results
CNC1C(OC2OC(CO)C(N)C(O)C2O)OC2CC(N)C(OC3C(N)CC(N)C(O)C3F)OC2C1O (stereo not drawn) [DC168, 5-Deoxy-5-epi-fluoro apramycin]	32	4	2	2	128	4	28 µM	2	8-16	2	2-4	2-4	4	2	30 µM	8	8-16	1	0.05 µM		MIC WT (WT clinical isolates; clinical isolates, IMM Univ. Zurich): 2 µg/mL (≈ 3.69 µM); MIC AG215 K. pneumonia ([4]; reference strain): 1 µg/mL; MIC AG290 E. cloacae ([5]; reference strain): 4 µg/mL; MIC AG220 P. aeruginosa ([6]; reference strain ATCC27853): 4 µg/mL; MIC apmA (isolates carrying apmA): 4 µg/mL (≈ 7.39 µM); MIC AG212 E. coli ([9]; reference strain ATCC25922): 4 µg/mL; MIC SZ380 M. smegmatis [11]: 0.125 µg/mL; MIC AAC(3)-IV [13]: >32 µg/mL; MIC ATCC19977 M. abcessus (ATCC19977 M. abcessus; reference strain): 1 µg/mL (≈ 1.85 µM); MIC AG225 A. baumannii ([16]; reference strain): 4 µg/mL
CNC1C(OC2OC(CO)C(N)C(O)C2O)OC2CC(N)C(OC3CC(O)C(N)CC3N)OC2C1O (centres unmarked) [DC169, 5-Deoxy-apramycin]	16	4	4	4	32	4	42 µM	2	8	4	2-4	2	4	4	45 µM	4	8	1	0.06 µM	4 µg/mL (≈ 7.64 µM)	MIC ([4]; reference strain): 2 µg/mL; MIC ([5]; reference strain): 2 µg/mL; MIC [6, 19]: 4 µg/mL; MIC (isolates carrying apmA): 16 µg/mL (≈ 30.6 µM); MIC [9, 20]: 4 µg/mL; MIC [11]: 0.125 µg/mL; MIC [13]: > 32 µg/mL; MIC (ATCC19977 M. abcessus): 1 µg/mL (≈ 1.91 µM); MIC ([16]; reference strain): 4 µg/mL
CNC1C(OC2OC(CO)C(N)C(O)C2O)OC2CC(N)C(OC3C(N)CC(N)C(O)C3F)OC2C1O (centres unmarked) [DC170, 5-Deoxy-5-fluoro apramycin]	32	8	4	4	64	8	74 µM	2	16	4	4-8	4-8	4	4	62 µM	8	8-16	2	0.06 µM	4 µg/mL (≈ 7.39 µM)	MIC ([4]; reference strain): 2 µg/mL; MIC ([5]; reference strain): 4 µg/mL; MIC [6, 19]: 8 µg/mL; MIC apmA (isolates carrying apmA): 32 µg/mL (≈ 59.1 µM); MIC [9, 20]: 4 µg/mL; MIC [11]: 0.25 µg/mL; MIC [13]: > 32 µg/mL; MIC (ATCC19977 M. abcessus): 1 µg/mL (≈ 1.85 µM); MIC ([16]; reference strain): 4 to 8 µg/mL
CNC1C(OC2OC(CO)C(N)C(O)C2O)OC2CC(N)C(OC3C(N)CC(N)C(O)C3OCC(O)CN)OC2C1O (centres unmarked) [DC212]							112 µM				4				158 µM	8	8		0.1 µM	4 µg/mL (≈ 6.53 µM)	MIC [4]: 2 µg/mL; MIC [5]: 4 µg/mL; MIC ([6]; ATCC27853, read-out: MIC AG220 P. aeruginosa): 4 µg/mL; MIC ([9]; ATCC25922, read-out: MIC AG212 E. coli): 4 µg/mL; MIC [16]: 4 µg/mL
CN[C@@H]1[C@@H](O)[C@@H](O[C@@H]2[C@@H](O)[C@H](O[C@H]3OC(CNCCO)=CC[C@H]3N)[C@@H](N)C[C@H]2NC(=O)[C@@H](O)CCN)OC[C@]1(C)O [PLZ, plazomicin, reference compound]	16-32	2-4	0.5			2			4		2-4	2-4	2-4			2-4	4	>32			MIC ([4]; reference strain): 0.25 to 0.5 µg/mL; MIC ([5]; reference strain): 0.5 µg/mL; MIC [6, 19]: 2 to 4 µg/mL; MIC [9, 20]: 0.5 to 1 µg/mL; MIC (ATCC19977 M. abcessus): 4 µg/mL (≈ 6.75 µM); MIC ([16]; reference strain): 2 µg/mL
